According to patent publication US20240360194A1, “New Peptides as Potent and Selective GIP Receptor Agonists” (Sanofi, priority 2021, published 2024):
Numbered stars: 1 amine (or outer) side, 2 acyl side, 3 side chain; on linkers, the order of the positions; unused ones are H or OH. Square brackets hold non-standard residues; d marks the D form. Side chains are listed from the residue outwards. Peptide text beside a SMILES is read from it. * marks the point of attachment. C18 diacid = O=C(O)CCCCCCCCCCCCCCCCC(=O)*; γGlu = O=C(O)[C@H](CCC(=O)[*:2])N[*:1]; AEEA = NCCOCCOCC(=O)O; Aib = CC(C)(N)C(=O)O

Key:
[1] = test system: C57Bl/6 mice; test: Acute effects after s.c. treatment on blood glucose in an intraperitoneal glucose tolerance test (ipGTT); format: in vivo, male C57Bl/6NCrl mice; details: for Blood glucose concentration AUC / Incremental blood glucose concentration AUCi: mean ± SEM; for Incremental blood glucose concentration AUCi: baseline corrected; for minimal effective dose for improvement of i.p. glucose tolerance: single s.c. dose, C57Bl/6NCrl mice, vs. vehicle
Excerpt: Acute Effects after Subcutaneous (s.c.) Treatment on Blood Glucose in an Intraperitoneal (i.p.) Glucose Tolerance Test (ipGTT) in Healthy, Male C57Bl/6 Mice
Healthy, normoglycemic male C57Bl/6NCrl mice were ordered in an age of 9-10 weeks with an approximate body weight (BW) of 24-26 g at Charles River Laboratories Deutschland GmbH, 97633 Sulzfeld, Germany. Mice were shipped grouped housed (N=4 per cage), acclimatized for one week and remained grouped housed throughout the entire study. Mice were housed under vivarium conditions that included a 12 h light/dark cycle (light phase 06:00 AM-06:00 PM), mean room temperature of 22±2° C. and a relative mean humidity of 55±10%. All animals had free access to food (Ssniff R/M-H diet) and water prior to study start. At study start mice were between 10-11 weeks old.
The primary objective of the study was to investigate the compound-induced lowering of the blood glucose excursion and improvement of glucose tolerance in a mouse ipGTT setting and therefore the primary parameters included blood glucose, delta blood glucose (normalized to the time point just prior to the i.p. glucose challenge, t=0 h) and their respective calculated area under curve (AUC) values. The study was performed as an acute, single dosing study with 6 groups and the male animals were randomly divided to groups of 7-8 mice per group. Dose-dependent pharmacodynamic blood glucose lowering efficacy of the GIPR agonist was analyzed with s.c. injections 6 h before the i.p. glucose load in the dose range from 3 up to 100 nmol/kg and compared to the vehicle group as well as the semaglutide positive control at a dose of 10 nmol/kg.
In more detail, mice were fed overnight and on the following morning brought to the lab with food removed but ad libitum access to water. Blood samplings (5 μl) were performed at: −6.5, −0.5, 0, 0.17, 0.5, 1, 1.5, 2 and 3 h before and after the glucose bolus of 1 g glucose per kg BW i.p. given at time point t=0 h. On time point t=0.17 h an additional K-EDTA plasma sample from 60-80 μl blood was taken for plasma insulin analysis. Blood was withdrawn from the tip of the tail. The GIPR agonist and semaglutide were dissolved in 10 mM phosphate buffer pH 7.4 with 2.3% glycerol and 0.01% polysorbat 20 (vehicle) and s.c. treatment was performed −6 h before the glucose load (t=0 h) using an injection volume of 5 ml/kg. The injection solutions were freshly prepared prior to the experiment using sterile filtered vehicle solution. Blood glucose was determined enzymatically (Gluco-quant® Glucose/HK kit on Roche/Hitachi 912). Plasma insulin was determined using a mouse/rat insulin sandwich immunoassay kit from Meso Scale Discovery.
All data were collected using Microsoft Excel. None of the data were collected online. The results are expressed as means±standard error of the mean (SEM). As primary study parameters, blood glucose, baseline (time point t=0 h) subtracted delta blood glucose and their respective calculated area under curve (AUC) values were determined.
The statistical analysis of the ipGTT blood glucose excursion data response following subcutaneous compound or vehicle treatment was performed on the calculated AUC values of blood glucose raw data as well as the calculated AUC values for baseline subtracted delta blood glucose data. In a first step the Levene's test was used to test for equality of variances between groups. […] Where Levene's test was not significant (p>0.05) ANOVA was conducted without prior rank transformation. In a second step a One-way ANOVA analysis for factor treatment followed by Dunnett's multiple comparisons test vs. vehicle group was used to test for statistical differences. All analyses were performed using SAS (version 9.4) under Linux via the interface software EverSt@t V6.1.
Male C57Bl/6NCrl mice were fed overnight and on the following morning brought to the lab with food removed but adlibitum access to water. […]

[2] = Pharmacokinetic evaluation in minipigs; format: in vivo; details: female, Göttingen, minipig, plasma
Method: Compounds were administered in a suitable buffer system, e.g. PBS buffer solution at pH7.4 or DPBS solution at concentrations of 0.05, 0.1, 0.5 or 1 mg/ml depending on dose, species and administration volume.
Female Göttingen minipigs were dosed 0.05 mg/kg intravenously (i.v.) or 0.1 mg/kg subcutaneously (s.c.). Blood samples were collected at 0 h and after 0.083, 0.25, 0.5, 1, 2, 4, 8, 24, 32, 48, 56, 72, 80, and 96 h post i.v. application and at 0 h and after 0.25, 0.5, 1, 2, 4, 8, 24, 32, 48, 56, 72, 80, and 96 h post s.c. application, respectively. Plasma samples were analysed after protein precipitation via liquid chromatography mass spectrometry (LC/MS). PK parameters and half-life were calculated using Phoenix-WinNonlin 8.1 using a non-compartmental model and linear trapezoidal interpolation calculation.
Pharmacokinetic profiles were determined as described in Methods.

CC[C@H](C)[C@H](NC(=O)[C@H](Cc1ccccc1)NC(=O)[C@H](CCC(=O)O)NC(=O)[C@H](CCC(=O)O)NC(=O)[C@H](CCC(N)=O)NC(=O)[C@H](Cc1c[nH]cn1)NC(=O)[C@@H](NC(=O)[C@H](CCCNC(=N)N)NC(=O)[C@H](CC(=O)O)NC(=O)[C@H](CCCCNC(=O)COCCOCCNC(=O)COCCOCCNC(=O)CC[C@H](NC(=O)CCCCCCCCCCCCCCCCC(=O)O)C(=O)O)NC(=O)C(C)(C)NC(=O)[C@@H](NC(=O)[C@H](CO)NC(=O)[C@H](CC(C)C)NC(=O)[C@H](CC(=O)O)NC(=O)[C@H](CO)NC(=O)[C@@H](NC(=O)[C@H](Cc1ccccc1)NC(=O)[C@@H](NC(=O)CNC(=O)[C@H](CCC(=O)O)NC(=O)C(C)(C)NC(=O)[C@@H](N)Cc1ccc(O)cc1)[C@@H](C)O)[C@@H](C)CC)[C@@H](C)CC)[C@@H](C)CC)C(=O)N[C@@H](CCC(N)=O)C(=O)N[C@@H](Cc1c[nH]c2ccccc12)C(=O)N[C@@H](CC(C)C)C(=O)N[C@@H](CC(C)C)C(=O)N[C@@H](C)C(=O)N[C@@H](CCC(N)=O)C(=O)NCC(=O)N1CCC[C@H]1C(=O)N[C@@H](CO)C(=O)N[C@@H](CO)C(=O)NCC(=O)N[C@@H](C)C(=O)N1CCC[C@H]1C(=O)N1CCC[C@H]1C(=O)N1CCC[C@H]1C(=O)N[C@@H](CO)C(N)=O [SEQ ID NO: 35, H2N-Y-Aib-E-G-T-F-I-S-D-L-S-I-Aib-K[{AEEA}2-gGlu-C18OH]-DRIHQEEFIQWLLAQGPSSGAPPPS-NH2] (H-Y[Aib]EGTFISDLSI[Aib]K([AEEA-AEEA-γGlu-C18 diacid])DRIHQEEFIQWLLAQGPSSGAPPPS-NH2)
Blood glucose concentration AUC ([1]; Example 14 study, 3 nmol/kg s.c. 6 h before i.p. glucose, vehicle 24.44): +24.41 ± 0.743 mmol/L* 0-2 h
Incremental blood glucose concentration AUCi ([1]; Example 14 study, 3 nmol/kg s.c., vehicle 5.22): +5.57 ± 0.454 mmol/L* 0-2 h
Blood glucose concentration AUC ([1]; Example 14 study, 10 nmol/kg s.c. 6 h before i.p. glucose, vehicle 24.44): +20.67 ± 0.516 mmol/L* 0-2 h
Incremental blood glucose concentration AUCi ([1]; Example 14 study, 10 nmol/kg s.c., vehicle 5.22): +5.05 ± 0.432 mmol/L* 0-2 h
Blood glucose concentration AUC ([1]; Example 14 study, 30 nmol/kg s.c. 6 h before i.p. glucose, vehicle 24.44): +18.45 ± 0.308 mmol/L* 0-2 h
Incremental blood glucose concentration AUCi ([1]; Example 14 study, 30 nmol/kg s.c., vehicle 5.22): +3.03 ± 0.225 mmol/L* 0-2 h
Blood glucose concentration AUC ([1]; Example 14 study, 100 nmol/kg s.c. 6 h before i.p. glucose, vehicle 24.44): +15.17 ± 0.452 mmol/L* 0-2 h
Incremental blood glucose concentration AUCi ([1]; Example 14 study, 100 nmol/kg s.c., vehicle 5.22): +1.76 ± 0.222 mmol/L* 0-2 h
minimal effective dose for improvement of i.p. glucose tolerance [1]: 10 to 30 nmol/kg

CC[C@H](C)[C@H](NC(=O)[C@H](CCCNC(=N)N)NC(=O)[C@H](CC(=O)O)NC(=O)[C@H](CCCCNC(=O)COCCOCCNC(=O)COCCOCCNC(=O)CC[C@H](NC(=O)CCCCCCCCCCCCCCCCC(=O)O)C(=O)O)NC(=O)C(C)(C)NC(=O)[C@@H](NC(=O)[C@H](CO)NC(=O)[C@H](CC(C)C)NC(=O)[C@H](CC(=O)O)NC(=O)[C@H](CO)NC(=O)[C@@H](NC(=O)[C@H](Cc1ccccc1)NC(=O)[C@@H](NC(=O)CNC(=O)[C@H](CCC(=O)O)NC(=O)C(C)(C)NC(=O)[C@@H](N)Cc1ccc(O)cc1)[C@@H](C)O)[C@@H](C)CC)[C@@H](C)CC)C(=O)N[C@@H](Cc1c[nH]cn1)C(=O)N[C@@H](CCC(N)=O)C(=O)NC(C)(C)C(=O)N[C@@H](CCC(=O)O)C(=O)N[C@@H](Cc1ccccc1)C(=O)N[C@H](C(=O)N[C@@H](CCC(=O)O)C(=O)N[C@@H](Cc1c[nH]c2ccccc12)C(=O)N[C@@H](CC(C)C)C(=O)N[C@@H](CC(C)C)C(=O)N[C@@H](C)C(=O)N[C@@H](CCC(N)=O)C(=O)N[C@@H](CCCNC(=N)N)C(=O)NCC(N)=O)[C@@H](C)CC [SEQ ID NO: 6, H2N-Y-Aib-E-G-T-F-I-S-D-L-S-I-Aib-K[{AEEA}2-gGlu-C18OH]-D-R-I-H-Q-Aib-E-F-I-E-W-L-L-A-Q-R-G-NH2]
Blood glucose concentration AUC ([1]; Example 13 study, 3 nmol/kg s.c. 6 h before i.p. glucose, vehicle 23.20): +21.51 ± 0.580 mmol/L* 0-2 h
Incremental blood glucose concentration AUCi ([1]; Example 13 study, 3 nmol/kg s.c., vehicle 5.50): +3.85 ± 0.438 mmol/L* 0-2 h
Blood glucose concentration AUC ([1]; Example 13 study, 10 nmol/kg s.c. 6 h before i.p. glucose, vehicle 23.20): +19.37 ± 0.309 mmol/L* 0-2 h
Incremental blood glucose concentration AUCi ([1]; Example 13 study, 10 nmol/kg s.c., vehicle 5.50): +3.84 ± 0.240 mmol/L* 0-2 h
Blood glucose concentration AUC ([1]; Example 13 study, 30 nmol/kg s.c. 6 h before i.p. glucose, vehicle 23.20): +17.22 ± 0.453 mmol/L* 0-2 h
Incremental blood glucose concentration AUCi ([1]; Example 13 study, 30 nmol/kg s.c., vehicle 5.50): +2.87 ± 0.382 mmol/L* 0-2 h
Blood glucose concentration AUC ([1]; Example 13 study, 100 nmol/kg s.c. 6 h before i.p. glucose, vehicle 23.20): +15.35 ± 0.308 mmol/L* 0-2 h
Incremental blood glucose concentration AUCi ([1]; Example 13 study, 100 nmol/kg s.c., vehicle 5.50): +1.21 ± 0.361 mmol/L* 0-2 h
minimal effective dose for improvement of i.p. glucose tolerance [1]: 10 to 30 nmol/kg

CC[C@H](C)[C@H](NC(=O)[C@H](CCC(=O)O)NC(=O)[C@H](CCC(=O)O)NC(=O)[C@H](CCCCNC(=O)COCCOCCNC(=O)COCCOCCNC(=O)CC[C@H](NC(=O)CCCCCCCCCCCCCCCCC(=O)O)C(=O)O)NC(=O)C(C)(C)NC(=O)[C@@H](NC(=O)[C@H](CO)NC(=O)[C@H](CC(C)C)NC(=O)[C@H](CC(=O)O)NC(=O)[C@H](CO)NC(=O)[C@@H](NC(=O)[C@H](Cc1ccccc1)NC(=O)[C@@H](NC(=O)CNC(=O)[C@H](CCC(=O)O)NC(=O)C(C)(C)NC(=O)[C@@H](N)Cc1ccc(O)cc1)[C@@H](C)O)[C@@H](C)CC)[C@@H](C)CC)C(=O)N[C@@H](Cc1c[nH]cn1)C(=O)N[C@@H](CCC(N)=O)C(=O)NC(C)(C)C(=O)N[C@@H](CCC(=O)O)C(=O)N[C@@H](Cc1ccccc1)C(=O)N[C@H](C(=O)N[C@@H](CCC(=O)O)C(=O)N[C@@H](Cc1c[nH]c2ccccc12)C(=O)N[C@@H](CC(C)C)C(=O)N[C@@H](CC(C)C)C(=O)N[C@@H](C)C(=O)N[C@@H](CCC(N)=O)C(=O)NCC(=O)N1CCC[C@H]1C(=O)N[C@@H](CO)C(=O)N[C@@H](CO)C(=O)NCC(=O)N[C@@H](C)C(=O)N1CCC[C@H]1C(=O)N1CCC[C@H]1C(=O)N1CCC[C@H]1C(=O)N[C@@H](CO)C(N)=O)[C@@H](C)CC [SEQ ID NO: 19, H2N-Y-Aib-E-G-T-F-I-S-D-L-S-I-Aib-K[{AEEA}2-gGlu-C18OH]-E-E-I-H-Q-Aib-E-F-I-E-W-L-L-A-Q-G-P-S-S-G-A-P-P-P-S-NH2] (H-Y[Aib]EGTFISDLSI[Aib]K([AEEA-AEEA-γGlu-C18 diacid])EEIHQ[Aib]EFIEWLLAQGPSSGAPPPS-NH2)
AUC(0-t) ([2]; iv, 0.05 mg/kg i.v.): 50500 ng·h/mL
Cmax ([2]; iv, 0.05 mg/kg i.v.): 1980 ng/mL
clearance ([2]; iv, 0.05 mg/kg i.v.): 15.4 mL/day/kg
half-life ([2]; iv, 0.05 mg/kg i.v.): 64.1 h
AUC(0-t) ([2]; sc, 0.1 mg/kg s.c.): 56800 ng·h/mL
Cmax ([2]; sc, 0.1 mg/kg s.c.): 723 ng/mL
bioavailability ([2]; sc, 0.1 mg/kg s.c.): 56%
